Measured values reported in publication PMC3956125 (Molecular cancer therapeutics, 2013).

What was measured:
A498 cells [1] = assay: 3H-thymidine incorporation proliferation assay; format: cell-based, human
786-O cells [2] = assay: 3H-thymidine incorporation proliferation assay; format: cell-based, human
A498 cells [3] = assay: cell cycle analysis by flow cytometry; format: cell-based, human; conditions: increasing concentrations, 24 hours
786-O cells [4] = assay: intracellular glucose measurement; format: cell-based, human; conditions: 24 hours
A498 tumor model = assay: subcutaneous xenograft anti-tumor activity; format: in vivo, mouse; conditions: 4 weeks
CYP2C19 = CYP2C19 (Homo sapiens, UniProt P33261); assay: multiple CYP assay in human liver microsomes; conditions: 10 μM
[5] = tested on: pancreatic and ovarian cancer cells; conditions: cited from earlier work
SKOV3 ovarian cancer = conditions: SKOV3 xenograft; cited from earlier work
786-O cells [6] = assay: Western blot / immunofluorescence of marker proteins; format: cell-based, human
panel of 320 kinases = assay: kinase selectivity profile, single dose; format: biochemical
[7] = pharmacokinetic analysis of plasma levels; conditions: Sprague-Dawley rats
786-O tumor model = assay: subcutaneous xenograft anti-tumor activity; format: in vivo, mouse; conditions: 4 weeks
metabolic stability = conditions: human liver microsomes, after 60 min of incubation
786-O cells [8] = assay: cell cycle analysis by flow cytometry; format: cell-based, human; conditions: increasing concentrations, 24 hours
A498 cells [9] = assay: Annexin-FITC/PI apoptosis assay; format: cell-based, human; conditions: 48 hours
786-O cells [10] = assay: Annexin-FITC/PI apoptosis assay; format: cell-based, human; conditions: 48 hours
A498 cells [11] = assay: intracellular glucose measurement; format: cell-based, human; conditions: 24 hours
CYP3A4 = CYP3A4 (Homo sapiens, UniProt P08684); assay: multiple CYP assay in human liver microsomes; conditions: 10 μM
hERG = hERG (Homo sapiens, UniProt Q12809); assay: hERG inhibition; format: cell-based; conditions: read-out: IC50 for hERG inhibition; patch-clamp
CYP2D6 = CYP2D6 (Homo sapiens, UniProt P10635); assay: multiple CYP assay in human liver microsomes; conditions: 10 μM
CYP2C9 = CYP2C9 (Homo sapiens, UniProt P11712); assay: multiple CYP assay in human liver microsomes; conditions: 10 μM
CYP1A2 = target: T1, CYP1A2 (Homo sapiens, UniProt P05177); assay: multiple CYP assay in human liver microsomes; conditions: 10 μM
T1 sequence (P05177 1-516): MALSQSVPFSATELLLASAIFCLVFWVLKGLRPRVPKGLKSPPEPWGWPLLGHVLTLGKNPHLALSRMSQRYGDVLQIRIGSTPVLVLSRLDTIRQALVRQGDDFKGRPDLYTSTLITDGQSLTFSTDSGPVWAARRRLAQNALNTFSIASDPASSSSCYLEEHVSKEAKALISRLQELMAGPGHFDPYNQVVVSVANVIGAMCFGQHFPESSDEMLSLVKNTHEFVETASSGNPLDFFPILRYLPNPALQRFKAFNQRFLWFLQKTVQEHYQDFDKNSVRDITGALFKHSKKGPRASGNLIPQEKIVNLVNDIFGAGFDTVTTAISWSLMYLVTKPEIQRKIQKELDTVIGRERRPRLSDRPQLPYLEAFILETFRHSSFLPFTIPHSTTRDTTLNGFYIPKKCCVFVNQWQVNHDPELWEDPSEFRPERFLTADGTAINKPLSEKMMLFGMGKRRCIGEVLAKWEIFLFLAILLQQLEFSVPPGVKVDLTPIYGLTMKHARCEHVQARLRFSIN

CYP2B6 = target: T2, CYP2B6 (Homo sapiens, UniProt P20813); assay: multiple CYP assay in human liver microsomes; conditions: 10 μM
T2 sequence (P20813 1-491): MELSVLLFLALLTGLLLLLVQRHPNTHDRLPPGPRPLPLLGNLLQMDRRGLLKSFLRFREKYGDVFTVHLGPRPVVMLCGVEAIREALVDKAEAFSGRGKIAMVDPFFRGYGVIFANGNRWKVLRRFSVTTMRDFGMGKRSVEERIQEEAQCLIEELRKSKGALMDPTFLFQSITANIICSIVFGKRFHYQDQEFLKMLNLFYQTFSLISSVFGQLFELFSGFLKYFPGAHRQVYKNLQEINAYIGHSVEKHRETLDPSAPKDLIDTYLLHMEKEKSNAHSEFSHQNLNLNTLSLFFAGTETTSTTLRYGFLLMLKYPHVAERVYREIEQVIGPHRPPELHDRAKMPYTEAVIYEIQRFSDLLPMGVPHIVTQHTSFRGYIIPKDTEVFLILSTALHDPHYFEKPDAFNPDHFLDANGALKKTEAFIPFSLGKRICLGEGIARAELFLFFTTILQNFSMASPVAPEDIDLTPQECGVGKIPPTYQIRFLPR

A498 cells [12] = assay: Western blot / immunofluorescence of marker proteins; format: cell-based, human
[13] = 20 mg/kg i.p. three times a week, p<0.05
[14] = tumor tissue sections, 20 mg/kg i.p.

Sequence of hERG (Q12809 whole entry): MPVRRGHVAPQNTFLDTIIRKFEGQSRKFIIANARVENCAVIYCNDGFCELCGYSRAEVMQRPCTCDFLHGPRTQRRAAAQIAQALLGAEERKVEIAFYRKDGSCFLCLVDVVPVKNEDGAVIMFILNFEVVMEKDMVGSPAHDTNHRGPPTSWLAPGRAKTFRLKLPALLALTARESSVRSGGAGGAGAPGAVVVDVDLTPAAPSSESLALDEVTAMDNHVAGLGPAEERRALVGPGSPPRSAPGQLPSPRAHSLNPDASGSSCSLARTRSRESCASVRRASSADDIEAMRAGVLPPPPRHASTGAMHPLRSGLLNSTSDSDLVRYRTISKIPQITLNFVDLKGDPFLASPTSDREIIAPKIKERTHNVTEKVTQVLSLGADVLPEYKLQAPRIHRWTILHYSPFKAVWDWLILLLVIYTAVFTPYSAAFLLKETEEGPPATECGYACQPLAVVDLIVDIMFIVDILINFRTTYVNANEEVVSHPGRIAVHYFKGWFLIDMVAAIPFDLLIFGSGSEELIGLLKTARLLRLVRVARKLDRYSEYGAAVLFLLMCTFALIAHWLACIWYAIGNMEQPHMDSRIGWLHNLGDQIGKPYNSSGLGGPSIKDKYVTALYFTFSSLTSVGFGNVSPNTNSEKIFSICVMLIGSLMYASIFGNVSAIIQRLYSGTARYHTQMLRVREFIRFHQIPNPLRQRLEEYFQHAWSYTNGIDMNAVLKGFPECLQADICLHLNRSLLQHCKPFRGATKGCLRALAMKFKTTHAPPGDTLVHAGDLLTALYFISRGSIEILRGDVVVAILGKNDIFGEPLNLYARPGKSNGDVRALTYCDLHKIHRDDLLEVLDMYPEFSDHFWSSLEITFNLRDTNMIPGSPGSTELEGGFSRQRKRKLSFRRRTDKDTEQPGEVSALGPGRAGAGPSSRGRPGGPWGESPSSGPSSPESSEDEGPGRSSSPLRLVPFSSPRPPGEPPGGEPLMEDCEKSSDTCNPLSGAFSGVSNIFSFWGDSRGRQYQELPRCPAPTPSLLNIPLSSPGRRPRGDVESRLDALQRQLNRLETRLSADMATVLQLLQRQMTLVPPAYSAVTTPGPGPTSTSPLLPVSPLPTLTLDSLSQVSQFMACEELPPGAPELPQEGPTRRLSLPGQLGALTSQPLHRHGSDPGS
Sequence of CYP2D6 (P10635 whole entry): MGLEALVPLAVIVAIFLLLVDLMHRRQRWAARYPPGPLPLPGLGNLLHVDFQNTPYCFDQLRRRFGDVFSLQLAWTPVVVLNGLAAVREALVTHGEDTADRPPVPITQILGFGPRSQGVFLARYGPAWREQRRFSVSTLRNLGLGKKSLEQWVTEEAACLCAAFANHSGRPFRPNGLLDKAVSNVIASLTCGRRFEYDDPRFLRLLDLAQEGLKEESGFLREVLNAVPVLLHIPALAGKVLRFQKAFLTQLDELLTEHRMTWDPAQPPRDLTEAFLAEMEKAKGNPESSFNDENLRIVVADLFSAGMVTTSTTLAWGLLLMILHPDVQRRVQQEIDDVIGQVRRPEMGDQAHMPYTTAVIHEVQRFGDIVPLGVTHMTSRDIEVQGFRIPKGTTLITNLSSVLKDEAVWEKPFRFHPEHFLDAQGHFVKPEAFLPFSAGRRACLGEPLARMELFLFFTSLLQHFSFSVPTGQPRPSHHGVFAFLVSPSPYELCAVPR
Sequence of CYP2C19 (P33261 whole entry): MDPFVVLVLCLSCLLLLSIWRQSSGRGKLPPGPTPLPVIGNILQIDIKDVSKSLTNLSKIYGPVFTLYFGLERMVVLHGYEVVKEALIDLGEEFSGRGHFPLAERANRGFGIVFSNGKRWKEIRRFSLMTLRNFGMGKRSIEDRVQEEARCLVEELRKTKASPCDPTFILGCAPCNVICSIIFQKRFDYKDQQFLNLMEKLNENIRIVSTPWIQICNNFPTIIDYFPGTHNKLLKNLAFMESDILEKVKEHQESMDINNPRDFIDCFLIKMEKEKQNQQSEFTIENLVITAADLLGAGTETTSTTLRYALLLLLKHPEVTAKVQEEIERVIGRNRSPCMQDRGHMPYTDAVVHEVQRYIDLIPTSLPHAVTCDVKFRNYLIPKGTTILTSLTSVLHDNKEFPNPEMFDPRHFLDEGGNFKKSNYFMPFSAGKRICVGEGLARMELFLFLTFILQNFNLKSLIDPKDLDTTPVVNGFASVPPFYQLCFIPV
Sequence of CYP2C9 (P11712 whole entry): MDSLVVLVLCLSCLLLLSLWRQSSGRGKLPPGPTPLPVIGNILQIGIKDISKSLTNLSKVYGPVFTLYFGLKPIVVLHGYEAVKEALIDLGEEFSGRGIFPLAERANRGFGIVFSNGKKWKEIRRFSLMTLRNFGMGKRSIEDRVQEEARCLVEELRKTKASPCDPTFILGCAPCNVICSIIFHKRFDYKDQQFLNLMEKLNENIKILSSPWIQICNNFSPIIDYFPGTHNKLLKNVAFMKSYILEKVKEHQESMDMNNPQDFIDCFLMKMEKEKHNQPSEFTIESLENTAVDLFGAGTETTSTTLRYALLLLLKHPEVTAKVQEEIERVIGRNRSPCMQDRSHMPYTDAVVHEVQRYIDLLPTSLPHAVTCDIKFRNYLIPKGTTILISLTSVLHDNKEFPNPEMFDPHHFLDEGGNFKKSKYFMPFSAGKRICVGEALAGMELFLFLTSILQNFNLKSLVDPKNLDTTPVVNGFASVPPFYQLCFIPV
Sequence of CYP3A4 (P08684 whole entry): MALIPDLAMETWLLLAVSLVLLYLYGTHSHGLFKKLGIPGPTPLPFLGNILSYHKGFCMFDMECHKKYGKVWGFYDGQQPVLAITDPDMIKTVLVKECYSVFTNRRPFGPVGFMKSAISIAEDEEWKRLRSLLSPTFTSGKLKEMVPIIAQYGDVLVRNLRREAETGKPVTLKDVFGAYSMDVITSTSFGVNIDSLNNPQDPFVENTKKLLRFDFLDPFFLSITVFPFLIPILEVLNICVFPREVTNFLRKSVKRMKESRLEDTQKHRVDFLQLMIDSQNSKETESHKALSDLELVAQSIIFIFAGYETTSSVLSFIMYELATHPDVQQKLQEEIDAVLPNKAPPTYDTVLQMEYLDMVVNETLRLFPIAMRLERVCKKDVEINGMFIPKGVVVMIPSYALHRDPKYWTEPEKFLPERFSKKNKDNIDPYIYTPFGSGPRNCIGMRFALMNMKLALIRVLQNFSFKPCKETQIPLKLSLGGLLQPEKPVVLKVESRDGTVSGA

Compound: GSK-3β siRNA: Qiagen siRNA against GSK-3β, target sequence 5'-CCCAAATGTCAAACTACCAAA-3' (sense CAAAUGUCAAACUACCAAATT; antisense UUUGGUAGUUUGACAUUUGGG; chemistry not given here) [reference compound]
- inhibition of proliferation (A498 cells [1]; siRNA 100 nM, 72 hours, A498, p<0.01): slight yet significant inhibition
- inhibition of proliferation (786-O cells [2]; siRNA 100 nM, 72 hours, p<0.01): slight yet significant inhibition

Compound: Cn1cc(C2=C(c3coc4ccc(F)cc34)C(=O)NC2=O)c2cc3c(cc21)OCO3 [9-ING-41]
- fraction of cells in the S phase (A498 cells [3]): decreased significantly
- intracellular glucose (786-O cells [4]): dose-dependent increase
- tumor growth vs control group (A498 tumor model; [13]): significant reduction of tumor growth
- abundance of Ki67-positive nuclei vs control group (A498 tumor model; [14]): significantly lower
- CYP activity (CYP2C19): ≥ 50 % of the control
- antiproliferative activity [5]: potent antiproliferative agent
- tumor progression in vivo (SKOV3 ovarian cancer): attenuate tumor progression
- inhibition in proliferation (A498 cells [1]; 500 nM, 72 hours, A498): ~ 40%
- inhibition of proliferation (A498 cells [1]; 1000 nM, 72 hours, A498): almost complete inhibition
- IC50 (A498 cells [1]; read-out: cell growth inhibition IC50, A498): < 1 µM
- phosphorylation of AMPK-α and AMPK-β (786-O cells [6]; 24-48 hours, Western blot): increase in phosphorylation
- cyclin D1 protein expression (786-O cells [6]; 24 hours, Western blot): down-regulated
- Id-1 expression (786-O cells [6]; 48 hours, Western blot): decreased
- Ksp-cadherin expression (786-O cells [6]; 48 hours, Western blot): dose-dependent increase
- LC3B levels (autophagy) (786-O cells [6]; Western blot and immunofluorescence): increased levels
- number of kinases with less than 50% remaining activity (panel of 320 kinases; 10 μM single dose, duplicates, panel of 320 kinases): 35
- discrimination between GSK-3α and GSK-3β (panel of 320 kinases; SI Table S1, 10 μM): inhibits them equally
- elimination half-life [7]: 4.85 h
- volumes of distribution [7]: ≥ 10 L/kg
- tumor growth vs control group (786-O tumor model; [13]): significant reduction of tumor growth
- abundance of Ki67-positive nuclei vs control group (786-O tumor model; [14]): significantly lower
- parent compound remained (metabolic stability): 78.9%
- fraction of cells in the S phase (786-O cells [8]): decreased significantly
- induction of apoptosis (A498 cells [9]): No significant induction of apoptosis
- percentage of early apoptotic cells (786-O cells [10]; 1000 nM, 786-O (DMSO 5.54%)): 11.6%
- induction of apoptosis (786-O cells [10]; 786-O): No significant induction of apoptosis
- intracellular glucose (A498 cells [11]): dose-dependent increase
- CYP activity (CYP3A4): 32 % of the control
- IC50 (hERG): 21 µM
- CYP activity (CYP2D6): ≥ 50 % of the control
- inhibition in proliferation (786-O cells [2]; 500 nM, 72 hours): ~ 40%
- inhibition of proliferation (786-O cells [2]; 1000 nM, 72 hours): almost complete inhibition
- IC50 (786-O cells [2]; read-out: cell growth inhibition IC50): < 1 µM
- CYP activity (CYP2C9): ≥ 50 % of the control
- CYP activity (CYP1A2): ≥ 50 % of the control
- CYP activity (CYP2B6): ≥ 50 % of the control
- phosphorylation of AMPK-α and AMPK-β (A498 cells [12]; 24-48 hours, A498, Western blot): increase in phosphorylation
- cyclin D1 protein expression (A498 cells [12]; 24 hours, A498, Western blot): down-regulated
- Id-1 expression (A498 cells [12]; 48 hours, A498, Western blot): decreased
- Ksp-cadherin expression (A498 cells [12]; 48 hours, A498, Western blot): dose-dependent increase
- LC3B levels (autophagy) (A498 cells [12]; A498, Western blot and immunofluorescence): increased levels
